Experiment: in vitro
Conditions: human, hela cells, % viability

First: CN(C(=S)NCc1ccccc1)C1CC[C@@]2(c3ccc(F)cc3)CCN(C)[C@H]2C1 (stereo partly shown) [CBK003500C]
Second: C[C@H](NC(=O)OC1CC[C@@]2(c3ccccc3)CCN(C)[C@H]2C1)c1cccc2ccccc12 (stereo partly shown) [CBK003664]
The viability at 28.5 h, 10 µM of the first is lower: 90.1% for the first, 111% for the second.

Going from `COC(=O)c1sccc1S(=O)(=O)n1ccc2ccc(Br)cc21` [CBK003528] to `COC(=O)c1sccc1NS(=O)(=O)c1cc(F)c(Br)cc1F` [CBK004492], the viability at 28.5 h, 10 µM rises from 92.6% to 103%.

First: CC(C)(C)OC(=O)N1CCN(c2ccnc(N)n2)CC1 [CBK003529]
Second: CC(C)(C)OC(=O)N1CCN(c2ccccc2O)CC1 [CBK003878]
The viability at 28.5 h, 10 µM of the first is higher: 99.4% for the first, 94.5% for the second.

Compared with `Cn1c(=O)c2c(O)cc(=O)oc2c2ccccc21` [CBK003546], `Cc1nc2ccccc2c(=O)n1CC(N)=O` [CBK004145] is lower in viability at 28.5 h, 10 µM: 93.3% for the first, 89.8% for the second.

Compared with `Cc1cc(Oc2ccccc2)nc(NCc2ccccc2)n1` [CBK003557], `Cc1nc(Nc2ccc(Cl)cc2)nc(Oc2ccccc2)n1` [CBK003915] is higher in viability at 28.5 h, 10 µM: 99.1% for the first, 101% for the second.

First: Oc1cc(C(F)(F)F)nc(NCc2ccncc2)n1 [CBK003563]
Second: COc1ccc(NC(=O)C2CCCN2c2nc(O)cc(C(F)(F)F)n2)c(OC)c1 (stereo not shown) [CBK003951]
The viability at 28.5 h, 10 µM of the first is lower: 85.5% for the first, 94.9% for the second.

First: OC(COc1cccc2c1CCCC2)CN1CCC(O)(c2ccccc2)CC1 (stereo not shown) [CBK003585]
Second: OC(CNCCc1c[nH]c2ccccc12)COc1cccc2c1CCCC2 (stereo not shown) [CBK003831]
The viability at 28.5 h, 10 µM of the first is lower: 87.3% for the first, 93.9% for the second.

Compared with `CCNC(=S)NC1CC[C@@]2(C3=CC=CC4C=CC=CC34)CCN(C)[C@H]2C1` (stereo partly shown) [CBK003596C], `CCCCNC(=S)N[C@H]1CC[C@@]2(C3=CC=CC4C=CC=CC34)CCN(C)[C@H]2C1` (stereo partly shown) [CBK003610C] is higher in viability at 28.5 h, 10 µM: 91.7% for the first, 101% for the second.

Going from `CC(C)CC(=O)N1CCN(C(=O)c2ccc(F)cc2)CC1` [CBK003603] to `COc1cc(C(=O)N2CCN(C(=O)CC(C)C)CC2)cc(OC)c1OC` [CBK003604], the viability at 28.5 h, 10 µM rises from 91.1% to 99.2%.

Compared with `Nn1c(-c2cccs2)nc2ccccc2c1=O` [CBK003650], `Cn1ccnc1[S+]([O-])Cc1nc2ccccc2s1` (stereo not shown) [CBK005549] is lower in viability at 28.5 h, 10 µM: 99.2% for the first, 91.5% for the second.

Going from `C=C(C)CNc1ccccc1C(=O)OC` [CBK003656C] to `COc1ccccc1NC(=O)N(CC(C)C)CC(C)C` [CBK005456], the viability at 28.5 h, 10 µM rises from 89.1% to 102%.

First: COc1ccc(NC(=O)C2CCCN2c2nc(O)cc(C(F)(F)F)n2)cc1 (stereo not shown) [CBK003704]
Second: O=C(NC1CCCC1)C1CCCN1c1nc(O)cc(C(F)(F)F)n1 (stereo not shown) [CBK003927]
The viability at 28.5 h, 10 µM of the first is lower: 77% for the first, 83.5% for the second.

First: CC(=O)N1CC(C)(C)c2ccccc21 [CBK003715]
Second: CN1CC(CO)Oc2ccccc21 (stereo not shown) [CBK003872C]
The viability at 28.5 h, 10 µM of the first is lower: 99.6% for the first, 104% for the second.

Compared with `CC(C)CNCC1CC(C(=O)N2CCC(Cc3ccccc3)CC2)=NO1` (stereo not shown) [CBK003718C], `CC(C)CC1C(=O)NCCN1Cc1ccccc1` (stereo not shown) [CBK005336] is higher in viability at 28.5 h, 10 µM: 89.7% for the first, 92% for the second.

Going from `CC(NC(=O)n1ccc2c(N3CCNCC3)cccc21)c1ccccc1` (stereo not shown) [CBK003729C] to `O=C(Nc1c(F)cccc1F)n1ccc2c(N3CCNCC3)cccc21` [CBK003745C], the viability at 28.5 h, 10 µM falls from 90.7% to 89.5%.

Compared with `COc1ccc([C@@]23CCC(NC(=O)CCc4cccnc4)C[C@@H]2N(C)CC3)cc1OC` (stereo partly shown) [CBK003770], `COc1cc2c(cc1OC)CN(CC(O)COc1cccc3c1CCCC3)CC2` (stereo not shown) [CBK003828] is higher in viability at 28.5 h, 10 µM: 92.8% for the first, 113% for the second.

Going from `Nc1nc(CCN2CCOCC2=O)cs1` [CBK003792] to `CCOC(=O)NC(=O)c1cn(N2CCOCC2)c(=O)[nH]c1=O` [CBK004845], the viability at 28.5 h, 10 µM rises from 85.8% to 104%.

Compared with `O=c1cc(-c2ccccc2)nc(N2CCOCC2)[nH]1` [CBK003840], `Cc1cn(C(C)(C)C(=O)N2CCOCC2)nc1-c1ccccc1Cl` [CBK005206] is lower in viability at 28.5 h, 10 µM: 93.9% for the first, 85.9% for the second.

Going from `Clc1nc2ccccc2nc1N1CCNCC1` [CBK003880] to `O=C(Nc1cc(N2CCNCC2)ncn1)c1cnc2ccccc2c1` [CBK004209T], the viability at 28.5 h, 10 µM falls from 96% to 80.5%.

Compared with `Clc1ncccc1OCCOc1ccccc1` [CBK003888], `O=C(CCOc1ccccc1)Nc1cc(N2CCNCC2)ncn1` [CBK004225T] is higher in viability at 28.5 h, 10 µM: 87.2% for the first, 98.6% for the second.

Going from `NC1CCN(c2nccnc2OCCOc2cccnc2)CC1` [CBK003889F] to `CCCC(=O)Nc1cccnc1N1CCNCC1` [CBK004732T], the viability at 28.5 h, 10 µM rises from 82.3% to 94%.

Going from `COc1cccc(CC2(C#N)CC2)c1` [CBK003907] to `COc1ccc(OC)c(NS(=O)(=O)N(C)C)c1` [CBK005362], the viability at 28.5 h, 10 µM rises from 87.5% to 94.1%.

First: CCCCc1cc(=O)[nH]c(NCc2ccc(C(F)(F)F)cc2)n1 [CBK003946]
Second: COC(=O)c1sccc1NS(=O)(=O)c1ccc(C(F)(F)F)cc1[N+](=O)[O-] [CBK004510]
The viability at 28.5 h, 10 µM of the first is lower: 92.5% for the first, 92.9% for the second.

First: FC(F)(F)c1ccc(N2CCNCC2)nc1OCc1ccccc1COc1ccccc1 [CBK003965A]
Second: C[C@@H]1CN(c2ccc(C(F)(F)F)c(OCc3ccccc3)n2)CCN1 [CBK003987A]
The viability at 28.5 h, 10 µM of the first is lower: 91.9% for the first, 94% for the second.

Compared with `CCSc1nc(N2CCNC[C@@H]2C)ccc1C(F)(F)F` [CBK003986A], `CCC#CC(=O)Nc1ccc(N2CCNCC2)nc1` [CBK004746T] is higher in viability at 28.5 h, 10 µM: 96.1% for the first, 101% for the second.

Going from `CCOc1ccsc1C(=O)Nc1cc(C)ccn1` [CBK004029] to `Cc1ccnc(NC(=O)c2ccccc2)c1` [CBK004031], the viability at 28.5 h, 10 µM rises from 88.3% to 90.6%.

Going from `CC(C)(C)OC(=O)N1CCC(Oc2ccc(CN)cc2)CC1` [CBK004131] to `CCOC(=O)C1=C(Nc2ccc(O)cc2)C(=O)N(C(C)(C)C)C1` [CBK005677], the viability at 28.5 h, 10 µM rises from 81.7% to 83%.

Compared with `Cc1ccc(S(N)(=O)=O)cc1NC(=O)c1ccco1` [CBK004204], `Cc1ccc(S(=O)(=O)Nc2ccsc2C(=O)N2CCOCC2)cc1[N+](=O)[O-]` [CBK004612] is lower in viability at 28.5 h, 10 µM: 93.7% for the first, 81.7% for the second.

First: O=C(Nc1cncc(N2CCNCC2)n1)c1coc2c1C(=O)CCC2 [CBK004229T]
Second: O=C(Nc1ccc(N2CCNCC2)nc1)C1CCCO1 (stereo not shown) [CBK004748T]
The viability at 28.5 h, 10 µM of the first is higher: 96.8% for the first, 85.7% for the second.

Going from `O=C(Nc1nccc(N2CCNCC2)n1)c1cccs1` [CBK004305T] to `COCCC(=O)Nc1cccc(N2CCNCC2)c1` [CBK004769T], the viability at 28.5 h, 10 µM rises from 77.7% to 89.9%.

Compared with `O=C1NC(c2ccccc2)Cc2onc(-c3ccccc3)c21` (stereo not shown) [CBK004409], `S=C(Nc1ccccc1)c1ccccc1` [CBK005397] is higher in viability at 28.5 h, 10 µM: 90.9% for the first, 100% for the second.

Compared with `Cc1cc(Cl)cc(C)c1NS(=O)(=O)c1ccc(N2CCCNCC2)c2ccccc12` [CBK004433C], `O=C(Nc1ccccc1N1CCNCC1)C1CCC1` [CBK004755T] is lower in viability at 28.5 h, 10 µM: 97.2% for the first, 90.9% for the second.

Compared with `Cc1ccc(S(=O)(=O)Nc2ccsc2C(=O)Nc2ccc(F)cc2)cc1` [CBK004571], `Cc1nc(C)c(-c2cnc(NS(=O)(=O)c3ccc(Cl)cc3)nc2)s1` [CBK005935] is lower in viability at 28.5 h, 10 µM: 91% for the first, 86.9% for the second.

Compared with `CCOC(=O)c1c(NS(=O)(=O)Cc2ccccc2[N+](=O)[O-])sc2c1CCCC2` [CBK004651], `CCOC(=O)CSc1nnc(NS(=O)(=O)c2cccc(Cl)c2C)s1` [CBK004669] is higher in viability at 28.5 h, 10 µM: 95.8% for the first, 104% for the second.

First: COC(=O)c1nc(Cl)c(Cl)nc1NS(=O)(=O)c1cccc(Cl)c1C [CBK004709]
Second: Cc1ccc(NS(=O)(=O)N(C)C)c(C)c1 [CBK005246]
The viability at 28.5 h, 10 µM of the first is lower: 91.8% for the first, 122% for the second.

Compared with `O=C(Nc1cccc(N2CCNCC2)c1)C1CCCO1` (stereo not shown) [CBK004768T], `CC1CN(C(=S)Nc2ccc3ccccc3c2)CC(C)O1` (stereo not shown) [CBK004993] is higher in viability at 28.5 h, 10 µM: 93.4% for the first, 102% for the second.

Going from `CC(C)(C)C(=O)Nc1nnc(SCC(=O)N2CCc3ccccc32)s1` [CBK004889] to `c1ccc2c(c1)OCc1nnc(CCN3CCCCC3)n1-2` [CBK005285], the viability at 28.5 h, 10 µM rises from 83.5% to 95.2%.

Compared with `C[C@@H](NC(=O)N(Cc1ccc([N+](=O)[O-])cc1)CC(C)(C)N)c1cccc2ccccc12` [CBK004921], `CC(C)(N)CN(Cc1ccc(Cl)cc1)C(=O)Nc1ccccc1-c1ccccc1` [CBK004924] is higher in viability at 28.5 h, 10 µM: 102% for the first, 105% for the second.

Going from `CN(C)C(=O)n1cc(Cl)c(-c2ccccc2)n1` [CBK004985] to `CSCCN(CC(=O)O)Cc1ccccc1` [CBK005712], the viability at 28.5 h, 10 µM falls from 97% to 91.1%.

Going from `S=C(NCC1CCN(C(=S)NC2CCCCC2)CC1)NC1CCCCC1` [CBK004987] to `CC1CN(C(=S)Nc2ccc(NC(=S)N3CC(C)OC(C)C3)cc2)CC(C)O1` (stereo not shown) [CBK004991], the viability at 28.5 h, 10 µM falls from 87.7% to 78.9%.

First: COc1cc(Cc2c(OCCN(C)C)nc3ccccn3c2=O)cc(OC)c1OC [CBK005004C]
Second: CN(C)C[C@@H]1Cc2cccc3cccc(c23)[C@@H]1O [CBK005877C]
The viability at 28.5 h, 10 µM of the first is lower: 99.9% for the first, 111% for the second.

Going from `CCN(CC)S(=O)(=O)c1cc(S(=O)(=O)N(CC)CC)c2cccc3c2c1NC(=O)O3` [CBK005022] to `CN(C)CC(c1ccccc1)c1nnc2n1-c1ccc(S(C)(=O)=O)cc1C(c1ccccc1)=NC2` (stereo not shown) [CBK005856G], the viability at 28.5 h, 10 µM rises from 85.3% to 102%.

Going from `O=C1NC(=O)C(c2ccccc2)(c2ccccc2)N1` [CBK005292] to `Cc1cc(C)[n+](-c2ccccc2O)c(C)c1` [CBK005458G], the viability at 28.5 h, 10 µM rises from 108% to 116%.

First: CCOC(=O)N1CCCC(=O)c2c(C(=O)O)cn(C)c21 [CBK005301]
Second: COC(=O)c1sccc1-c1ccc(C2C3=C(CCCC3=O)NC3=C2C(=O)CCC3)o1 [CBK005748]
The viability at 28.5 h, 10 µM of the first is lower: 86.4% for the first, 92.3% for the second.

Going from `O=c1c(I)coc2ccc(Cl)cc12` [CBK005364] to `COc1ccc(-c2c(C)nn(-c3ccc(Cl)nn3)c2C)c(C(=O)O)c1` [CBK005774], the viability at 28.5 h, 10 µM rises from 93.9% to 107%.

First: Cc1nn(Cc2nnc(SCC(=O)C(C)(C)C)o2)c(C)c1Br [CBK005646]
Second: CSc1nc(N)n(-c2cc(C(F)(F)F)cc(C)n2)n1 [CBK005941]
The viability at 28.5 h, 10 µM of the first is higher: 92.1% for the first, 89.9% for the second.

For `O/N=C/Nc1nccc(-c2cc(Cl)sc2Cl)n1` [CBK005934], the viability at 28.5 h, 10 µM was 87.5%.

Same assay, conditions: human, hela cells, % viability, bulk resorufin, single well

`Cc1ccc2[nH]cc(CCN)c2c1` [CBK004365] showed a viability at 28.5 h, 10 µM of 103%.

From publication PMC12040169 (PLOS Biology, 2025)
